In series [1] the test system is Angiostrongylus cantonensis first-stage (L1) larvae. As to the kind of experiment: Antiparasitic assay with A. cantonensis L1 larvae (motility). The class given is cell-based. The following applies: for EC50: Angiostrongylus cantonensis, read-out: A. cantonensis EC50, L1; for selectivity index, L1: SI = CC50 (human HaCaT cells)/EC50 (L1). How it is done:
(§1) The life cycle of A. cantonensis (NPDN-AC strain) was maintained at the Research Center on Neglected Diseases, Guarulhos University, using either Biomphalaria glabrata (freshwater snails) or Achatina fulica (terrestrial mollusks) as intermediate hosts, and Wistar rats (Rattus norvegicus) as definitive hosts. All animals were maintained under controlled conditions (22 °C, ∼50% humidity) with ad libitum access to food and water.
First-stage larvae (L1) of A. cantonensis were isolated from the feces of infected Wistar rats using the Rugai sedimentation technique, followed by washing in RPMI 1640 medium containing antibiotics. Approximately 50 larvae were transferred to each well of a 96-well plate. Cubebin and albendazole (positive control) were tested starting at 100 μM using a serial dilution format for EC50 determination. Plates were incubated at 21 °C. Untreated larvae served as negative controls. […] Efficacy was defined as ≥60% of larvae becoming immobile after 24 h.
(§2) EC50 and CC50 values were calculated from nonlinear sigmoidal dose–response curves using GraphPad Prism version 8.0 (San Diego, CA). Group differences were analyzed using one-way ANOVA followed by Tukey’s post hoc test. A P-value of <0.05 was considered statistically significant.

The test system of series [2] is Angiostrongylus cantonensis infective third-stage (L3) larvae. As to the kind of experiment: Antiparasitic assay with A. cantonensis L3 larvae (motility). The following applies: for EC50: read-out: A. cantonensis EC50, L3; for selectivity index, L3: SI = CC50 (human HaCaT cells)/EC50 (L3). The class given is cell-based. How it is done:
as §1
Third-stage larvae (L3) of A. cantonensis were obtained from infected A. fulica via artificial digestion in HCl-pepsin solution, followed by sedimentation using the modified Rugai method. Approximately 50 larvae were added per well in 96-well plates. Cubebin and albendazole were tested starting at 100 μM in a serial dilution format for EC50 estimation. Plates were incubated at 21 °C, and larval viability was assessed at 0 and 24 h using an inverted microscope. […] Efficacy was defined as ≥60% immobility after 24 h.
as §2

Series [3] in a line: Cytotoxicity assay (MTT), Vero cells. The format is cell-based, monkey. The following applies: monkey, Vero cells, MTT, 48 h exposure per figure legend (method: 24 h), read-out: mammalian cells CC50, monkey. How it is done:
(§3) HaCaT cells (human keratinocytes) were obtained from the Banco de Células do Rio de Janeiro (Duque de Caxias, RJ, Brazil), and Vero cells (monkey kidney epithelial cells) were purchased from the American Type Culture Collection (ATCC CCL-81; Manassas, V). Cells were cultured in DMEM supplemented with 2 mM L-glutamine (Vitrocell), 100 U/mL penicillin, 100 μg/mL streptomycin, and 10% heat-inactivated fetal bovine serum, and maintained at 37 °C in a humidified atmosphere containing 5% CO2.
(§4) Cytotoxicity was evaluated using the MTT assay as previously described. Briefly, cells were seeded into 96-well plates (Corning) at a density of 2 × 10^3 cells per well and exposed to cubebin. The initial concentration tested was 500 μM, followed by 3-fold serial dilutions. Doxorubicin (15 μM) served as the positive control, while 0.5% DMSO was used as negative control. After 24 h of incubation at 37 °C with 5% CO2, MTT solution (Sigma) was added, and plates were incubated for an additional 4 h. Absorbance was measured at 595 nm using a spectrophotometer (Epoch, BioTek Instruments, Winooski, VT). Cell viability was expressed as a percentage relative to control wells. All assays were performed in triplicate and repeated independently three times.
as §2

Series [4] relates to Vero cells (monkey kidney epithelial cells). The experiment in a line: Cytotoxicity assay (MTT), Vero cells. The format is cell-based. The following applies: at concentrations up to 200 μM. As to the method:
as §3, §4, §2

A short description of series [5]: Cytotoxicity assay (MTT), HaCaT cells. The format is cell-based, human. The following applies: human, HaCaT cells, MTT, 48 h exposure per figure legend (method: 24 h), read-out: mammalian cells CC50, human. As to the method:
as §3, §4, §2

For series [6], the system named is HaCaT cells (human keratinocytes). As to the kind of experiment: Cytotoxicity assay (MTT), HaCaT cells. The following applies: at concentrations up to 200 μM. The format is cell-based. As to the method:
as §3, §4, §2

Series [7] relates to Caenorhabditis elegans (Bristol N2 strain) L4 larvae. As to the kind of experiment: Lethal toxicity assay in C. elegans. The class given is in vivo. The following applies: for C. elegans LD50 (lethal concentration 50%): L4 larvae, immobility, 72 h exposure per b20 (method b64: 24 h); for toxicity in C. elegans: cubebin at concentrations up to 1000 μM. As to the method:
The nematode C. elegans (Bristol N2 strain) was maintained on nematode growth medium (NGM) plates seeded with Escherichia coli […].
Synchronized fourth-stage larvae (L4) of C. elegans were transferred to 96-well plates containing M9 medium, with approximately 60 larvae per well. Cubebin was tested at concentrations starting from 1000 μM. Ivermectin (10 μM) served as the positive control, while 0.5% DMSO was used as the negative control. After 24 h of incubation at 21 °C, larval viability was evaluated based on movement. Toxicity was defined as ≥60% immobility.

[8] abbreviates: 24 h, score 1 = immotile to 4 = highly active.

“Also recorded” adds a separate entry of the source. Where two headings read alike, the source gives them in different places. Bounds are passed on as bounds.

On to `CCCSc1ccc2nc(NC(=O)OC)[nH]c2c1` [albendazole, reference compound], for which the 50% effective concentration (EC50) in series [1] (24 h) came to 12.8 ± 1.3 µM; in series [2] (Angiostrongylus cantonensis, 24 h) it was 12.3 ± 1.9 µM. In addition, the “selectivity index, L1” value in series [1] was over 15.6. Further, the “selectivity index, L3” value in series [2] is listed as over 16.2. For the same compound, the CC50 at 48 h in series [3] and in series [5] was over 200 µM each time. For the same compound, in series [4], the “cytotoxicity in Vero cells” value was “no cytotoxicity”. The “cytotoxicity in HaCaT cells” value in series [6] is “no cytotoxicity”. The “C. elegans LD50 (lethal concentration 50%)” value in series [7] amounted to 13.6 ± 1.1 µM. Also, the “toxicity in C. elegans” value in series [7] is “potent toxicity”.
In the case of `OC1OCC(Cc2ccc3c(c2)OCO3)C1Cc1ccc2c(c1)OCO2` (centres unmarked) [cubebin], the “larval viability (motility) score, L1” value in series [1] (setting [8]) is listed as 1. Further, the EC50 was determined as 4.7 ± 0.8 µM in series [1] (first-stage (L1) larvae, 24 h, 21 °C, immobility, mean ± SD, three independent experiments); 15.3 µM in series [2] (Angiostrongylus cantonensis, 24 h, infective third-stage (L3) larvae, 24 h, 21 °C, immobility, mean ± SD, three independent experiments); 15.2 ± 0.9 µM in series [2] (infective third-stage (L3) larvae, 24 h, 21 °C, immobility, mean ± SD, three independent experiments). Moreover, in series [1], the “selectivity index, L1” value was over 42.5. In addition, in series [2] (setting [8]), the “larval viability (motility) score, L3” value worked out at 1. Besides, the “selectivity index, L3” value in series [2] is listed as over 13.1. Besides, the CC50 at 48 h in series [3] (Vero cells (monkey kidney epithelial cells, ATCC CCL-81)) is over 200 µM; in series [5] (HaCaT cells (human keratinocytes)), over 200 µM. The “cytotoxicity in Vero cells” value in series [4] is listed as “no cytotoxicity”. In series [6], the “cytotoxicity in HaCaT cells” value was “no cytotoxicity”. Besides, in series [7], the “C. elegans LD50 (lethal concentration 50%)” value is over 1000 µM. Also, the “toxicity in C. elegans” value in series [7] is “no observable toxicity; also recorded: nontoxic”.

The values are drawn from publication PMC12290638, “Cubebin, a Lignan Isolated from Drimys andina, Exhibits Potent and Selective Antiparasitic Activity against Angiostrongylus cantonensis” (ACS Omega, 2025).
